Tests used:
[1] = test system: penile intracavernosal pressure; test: Pelvic nerve-stimulated penile intracavernosal pressure in the anaesthetised rabbit model of erection; type: in vivo; conditions: Compound 3 (10 mg/kg sc) concomitant with a selective PDE5 inhibitor (1 mg/kg iv), vs Compound 3 alone, anaesthetised rabbit (FIG. 26)
Method: Male New Zealand rabbits (˜2.5kg) were pre-medicated with a combination of Medetomidine (Domitor®) 0.5 ml/kg i.m., and Ketamine (Vetalar®)) 0.25 ml/kg i.m. whilst maintaining oxygen intake via a face mask. The rabbits were tracheotomised using a PorteXTM uncuffed endotracheal tube 3 ID., connected to ventilator and maintained at a ventilation rate of 30-40 breaths per minute, with an approximate tidal volume of 18-20 ml, and a maximum airway pressure of 10 cm H2O. Anaesthesia was then switched to Isoflurane and ventilation continued with O2 at 21/min. The right marginal ear vein was cannulated using a 23G or 24G catheter, and Lactated Ringer solution perfused at 0.5 ml/min. The rabbit was maintained at 3% Isoflurane during invasive surgery, dropping to 2% for maintenance anaesthesia. The left jugular vein was exposed, isolated and then cannulated with a PVC catheter (17G) for the infusion of drugs and compounds.
The left groin area of the rabbit was shaved and a vertical incision was made approximately 5 cm in length along the thigh. […] Systolic and diastolic pressures were measured, and the mean arterial pressure calculated using the formula (diastolic x2+systolic)÷3. Heart rate was measured via the pulse oxymeter and Po-ne-mah data acquisition software system (Ponemah Physiology Platform, Gould Instrument Systems Inc). […]

[2] = test system: female rat sexual proceptivity (NMB-inhibited); test: Inhibition of female rat proceptivity by i.c.v. NMB and its antagonism; type: in vivo; conditions: progesterone 0.5 mg s.c. 4 h; NMB 100 ng i.c.v. 10 min before test in progesterone-treated rats; Compound (1) 15 mg/kg i.p. 1 h before NMB (FIG. 5)
Method: Ovariectomised female rats (Sprague Dawley, obtained from Charles River, UK) were stereotaxically implanted (coordinates 0.89 mm behind Bregma, 1.3 mm lateral and 2.5 mm vertical) with stainless steel cannulae (6 mm long, O.D. 0.75 mm), held in place with dental cement. Animals were housed in groups of three and returned to a reversed lighting system of 12 h light:dark (lights off 5.00-17.00 h). Correct placement of the cannulae was assessed post-mortem. Rats were used for tests two weeks after ovariectomy (one week after cannulation). The experiments started at least 5 h into the dark period. Forty eight hours before tests, the animals were primed with 5 μg oestradiol benzoate (OB) (s.c, in corn oil) and adapted to the apparatus (in the absence of stimuli animals) for 10 min on 2 consecutive days prior testing. The 10 min test was carried out as previously described. The difference in the percentage of time spent investigating male minus female was calculated, out of the total time spent investigating stimuli.
Progesterone (Prog, 0.5 mg/0.1 ml) was dissolved in corn oil and administered subcutaneously (s.c.), 4 h before test, to induce proceptive behaviour. Compound (1) (15 mg/kg, i.p.) was dissolved in 50% 2-hydroxypropyl-β-cyclodextrin in saline and administered 1 h before the i.c.v. administration. Neuromedin B was obtained from Bachem, UK. It was dissolved in isotonic saline and administered i.c.v. over a 30 sec period, with the aid of a pump set to deliver a flow of 10 μl/min, 10 min before tests. The dosing volume was 5 μl/rat. Each rat received a total amount of 100 ng.

Structure (SMILES)	pelvic nerve-stimulated intracavernosal pressure (ICP) [1]	pelvic nerve-stimulated intracavernosal pressure (ICP) ([1]; listed as compound 3)	proceptivity (percentage of time investigating male minus female stimulus) [2]
C[C@@](Cc1c[nH]c2ccccc12)(NC(=O)Nc1ccc([N+](=O)[O-])cc1)C(=O)NCC1(c2ccc(N)cc2)CCCCC1 [Compound 3, (2S)-N-{[1-(4-aminophenyl)cyclohexyl]methyl}-3-(1H-indol-3-yl)-2-methyl-2-{[(4-nitroanilino)-carbonyl]amino}propanamide]	marked enhancement of the ICP	marked enhancement of intracavernosal pressure	–
COc1ccc(C2(CNC(=O)[C@](C)(Cc3c[nH]c4ccccc34)NC(=O)Nc3ccc([N+](=O)[O-])cc3)CCCCC2)nc1 [Compound (1), (S) 3-(1H-Indol-3-yl)-N-[1-(5-methoxy-pyridin-2-yl)-cyclohexyl-methyl]-2-methyl-2-[3-(4-nitro-phenyl)-ureido]-propionamide]	–	–	prevented the inhibitory effect of NMB

— patent publication US20020169101A1, “Treatment of sexual dysfunction” (priority 1999, published 2002)
